Results published in patent publication US20260102501A1, “ANTI-CANCER NUCLEAR HORMONE RECEPTOR-TARGETING COMPOUNDS” (Nuvation Bio Inc., priority 2022, published 2026).
Positions count from the first letter of the chain named. Numbered stars: 1 amine (or outer) side, 2 acyl side, 3 side chain; on linkers, the order of the positions; unused ones are H or OH. Square brackets hold non-standard residues; d marks the D form. Peptide text beside a SMILES is read from it. * marks the point of attachment. X1 = CC(=O)O[C@]1(C(C)=O)CC[C@H]2[C@@H]3CCC4=CC(=O)CCC4=C3[C@@H](c3ccc(*)cc3)C[C@@]21C; Exatecan = CC[C@@]1(O)C(=O)OCc2c1cc1n(c2=O)Cc2c-1nc1cc(F)c(C)c3c1c2[C@@H](N*)CC3; NHCH2OCH2CO = O=C(COCN[*:1])[*:2]; Sar = CNCC(=O)O

What was measured:
[1] = target: T1, AR (cytosol from LnCaP cells) (Homo sapiens, UniProt P10275, T878A); experiment: AR binding assay (3H-R1881 displacement)
T1 sequence (P10275 1-920 T878A): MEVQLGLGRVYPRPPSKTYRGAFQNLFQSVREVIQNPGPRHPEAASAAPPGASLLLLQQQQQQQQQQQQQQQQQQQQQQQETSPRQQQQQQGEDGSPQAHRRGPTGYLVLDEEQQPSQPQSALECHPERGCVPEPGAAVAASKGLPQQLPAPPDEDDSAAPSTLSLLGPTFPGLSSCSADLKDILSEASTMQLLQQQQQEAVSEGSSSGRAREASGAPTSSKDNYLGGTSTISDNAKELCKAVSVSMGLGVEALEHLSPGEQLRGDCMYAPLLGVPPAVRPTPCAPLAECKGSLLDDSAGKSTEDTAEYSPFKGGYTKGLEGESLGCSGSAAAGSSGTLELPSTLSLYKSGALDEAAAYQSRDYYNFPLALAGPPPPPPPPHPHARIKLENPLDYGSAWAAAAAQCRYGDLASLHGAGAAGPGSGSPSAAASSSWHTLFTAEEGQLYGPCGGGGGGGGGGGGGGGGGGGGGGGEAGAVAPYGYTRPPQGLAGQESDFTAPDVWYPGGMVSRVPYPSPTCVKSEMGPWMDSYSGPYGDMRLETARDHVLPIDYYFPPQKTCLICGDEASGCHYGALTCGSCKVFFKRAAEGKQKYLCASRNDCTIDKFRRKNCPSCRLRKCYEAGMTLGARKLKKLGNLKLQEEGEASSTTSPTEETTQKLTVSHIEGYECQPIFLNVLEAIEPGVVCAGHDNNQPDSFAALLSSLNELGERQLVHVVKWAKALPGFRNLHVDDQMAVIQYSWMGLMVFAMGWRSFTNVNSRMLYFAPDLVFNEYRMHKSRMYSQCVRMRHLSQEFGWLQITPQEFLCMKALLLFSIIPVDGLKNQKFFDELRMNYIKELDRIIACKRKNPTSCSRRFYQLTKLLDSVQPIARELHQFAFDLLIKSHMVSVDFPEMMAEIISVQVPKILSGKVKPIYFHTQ
Experimental: The plate was then centrifuged at 3000 rpm for 30 minutes at 4° C.

T47D cells = experiment: Cell viability assay (CellTiterGlo); type: cell-based; details: Homo sapiens, 144 h, read-out: T47D (IC50, nM)
[2] = target: T2, full-length androgen receptor (HEK293 cells stably expressing) (Homo sapiens, UniProt P10275); experiment: AR antagonism assay (luciferase reporter)
T2 sequence (P10275 1-920): T1 sequence (P10275 1-920 T878A) with A878T

[3] = target: T3, Progesterone Receptor (PR)-LBD and coactivator peptide (Homo sapiens, UniProt P06401); experiment: PR coactivator antagonist assay; details: 2.5 nM PR-LBD, 10 nM progesterone-induced fluorescence response
T3 sequence (P06401 679-913 limits assumed): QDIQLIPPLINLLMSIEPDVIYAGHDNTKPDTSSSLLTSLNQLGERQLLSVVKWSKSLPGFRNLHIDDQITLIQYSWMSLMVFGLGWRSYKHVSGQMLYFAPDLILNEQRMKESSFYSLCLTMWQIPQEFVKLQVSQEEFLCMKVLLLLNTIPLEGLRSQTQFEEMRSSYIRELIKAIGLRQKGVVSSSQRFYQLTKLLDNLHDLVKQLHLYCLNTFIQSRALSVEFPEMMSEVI

22Rv1 cells = experiment: Cell viability assay (CellTiterGlo); details: Homo sapiens, 22Rv1, 144 h, read-out: 22RV1 (IC50, nM)
Experimental: Cell viability assay: LNCap, 22Rv1, MCF7, MDAMB361, T47D, and IEC6 cells were seeded at a density of 500-2000 cells/well in 96 well plates, and a ‘T0’ (timepoint 0) was included along with the assay plate. The plates were then incubated at 37° C., 5% CO2 in a cell culture incubator overnight. On the next day, the ‘T0’ plate was assayed using CellTiterGlo (Promega, Inc) according to the manufacturer's instructions. The appropriate compounds were diluted in DMSO and added to the assay plate (final DMSO concentration of 0.1-0.2%) on the next day. The assay plates were incubated for 6 days at 37° C., 5% CO2. After the incubation period, the plates were assayed using CellTiterGlo (Promega, Inc) according to the manufacturer's instructions and luminescence was read on the En Vision plate reader. […] GraphPadPrism was used to analyze the data and determine GI50/IC50 values.

CC[C@@]1(O)C(=O)OCc2c1cc1n(c2=O)Cc2c-1nc1cc(F)c(C)c3c1c2[C@@H](NC(=O)COCNC(=O)CNC(=O)[C@H](Cc1ccccc1)NC(=O)CNC(=O)CN(C)c1ccc([C@H]2C[C@@]4(C)[C@@H](CC[C@]4(OC(C)=O)C(C)=O)[C@@H]4CCC5=CC(=O)CCC5=C42)cc1)CC3 [Compound 34, (8S,11R,13S,14S,17R)-17-Acetyl-11-(4-(((S)-10-benzyl-1-(((1S,9S)-9-ethyl-5-fluoro-9-hydroxy-4-methyl-10,13-dioxo-2,3,9,10,13,15-hexahydro-1H,12H-benzo[de]pyrano[3′,4′:6,7]indolizino[1,2-b]quinolin-1-yl)amino)-1,6,9, 12,15-pentaoxo-3-oxa-5,8,11,14-tetraazahexadecan-16-yl)(methyl)amino)phenyl)-13-methyl-3-oxo-2,3,6,7,8,11,12,13,14,15,16,17-dodecahydro-1H-cyclopenta[a]phenanthren-17-yl Acetate] (X1-[Sar]GFG[NHCH2OCH2CO]-Exatecan) was tested, and the IC50 [1] was 10 to 100 nM, the IC50 (T47D cells) was 101 to 1000 nM and the IC50 [2] was > 1000 nM. The PR antagonism [3] was “a (IC50 =< 10 nM)” and the IC50 (22Rv1 cells) was 101 to 1000 nM.
